Assay results reported in ChEMBL document CHEMBL1773033, “Cyclic lactam hybrid α-MSH/Agouti-related protein (AGRP) analogues with nanomolar range binding affinities at the human melanocortin receptors” (Bioorg Med Chem Lett, 2011).
Positions of bridges follow the written chain, without caps; N, C: chain ends. Non-standard residues stand in square brackets, D forms with d. Residues, ends and D or L forms follow the SMILES beside them. 2Nal = N[C@@H](Cc1ccc2ccccc2c1)C(=O)O

Experiments:
[1] = biological target: T1, Melanocyte-stimulating hormone receptor (Homo sapiens, UniProt Q01726); experiment: Agonist activity at human MC1R expressed in HEK293 cells assessed as increase in intracellular cAMP accumulation; type: functional, cell-based
Target sequence in this assay (Q01726 whole entry): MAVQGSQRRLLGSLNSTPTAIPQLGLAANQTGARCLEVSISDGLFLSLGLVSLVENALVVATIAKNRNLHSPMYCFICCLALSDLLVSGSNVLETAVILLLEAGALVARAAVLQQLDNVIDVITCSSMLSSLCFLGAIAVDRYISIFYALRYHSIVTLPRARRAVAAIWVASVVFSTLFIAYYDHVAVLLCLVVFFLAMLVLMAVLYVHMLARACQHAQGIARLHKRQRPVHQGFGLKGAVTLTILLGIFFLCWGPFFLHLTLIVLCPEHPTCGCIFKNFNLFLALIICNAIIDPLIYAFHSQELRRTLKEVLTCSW

Melanocortin receptor 4 [2] = biological target: T2, Melanocortin receptor 4 (Homo sapiens, UniProt P32245); experiment: Agonist activity at human MC4R expressed in HEK293 cells assessed as increase in intracellular cAMP level at 10 uM after 3 mins by luminescence counter relative to Ac-Nle-c[Asp-His-D-Phe-Arg-Trp-Lys]-NH2; type: functional, cell-based
Melanocortin receptor 4 [3] = biological target: T2, Melanocortin receptor 4; experiment: Displacement of [125I]-NDP-alpha-MSH from human MC4R expressed in HEK293 cells after 40 mins by Wallac 1470 gamma counting; type: cell-based
Melanocortin receptor 4 [4] = biological target: T2, Melanocortin receptor 4; experiment: Agonist activity at human MC4R expressed in HEK293 cells assessed as intracellular cAMP accumulation; type: functional, cell-based
Melanocortin receptor 3 [5] = biological target: T3, Melanocortin receptor 3 (Homo sapiens, UniProt P41968); experiment: Agonist activity at human MC3R expressed in HEK293 cells assessed as intracellular cAMP accumulation; type: functional, cell-based
Melanocortin receptor 5 [6] = biological target: T4, Melanocortin receptor 5 (Homo sapiens, UniProt P33032); experiment: Agonist activity at human MC5R expressed in HEK293 cells assessed as intracellular cAMP accumulation; type: functional, cell-based
Melanocortin receptor 3 [7] = biological target: T3, Melanocortin receptor 3; experiment: Displacement of [125I]-NDP-alpha-MSH from human MC3R expressed in HEK293 cells at 10 uM after 40 mins by Wallac 1470 gamma counting relative to Ac-Nle-c[Asp-His-D-Phe-Arg-Trp-Lys]-NH2; type: cell-based
[8] = biological target: T1, Melanocyte-stimulating hormone receptor; experiment: Displacement of [125I]-NDP-alpha-MSH from human MC1R expressed in HEK293 cells at 10 uM after 40 mins by Wallac 1470 gamma counting relative to Ac-Nle-c[Asp-His-D-Phe-Arg-Trp-Lys]-NH2; type: cell-based
Target sequence in this assay (Q01726 whole entry, looked up): as the sequence (Q01726 whole entry) above

[9] = biological target: T1, Melanocyte-stimulating hormone receptor; experiment: Displacement of [125I]-NDP-alpha-MSH from human MC1R expressed in HEK293 cells after 40 mins by Wallac 1470 gamma counting; type: cell-based
Target sequence in this assay (Q01726 whole entry): as above

Melanocortin receptor 5 [10] = biological target: T4, Melanocortin receptor 5; experiment: Displacement of [125I]-NDP-alpha-MSH from human MC5R expressed in HEK293 cells after 40 mins by Wallac 1470 gamma counting; type: cell-based
Melanocortin receptor 5 [11] = biological target: T4, Melanocortin receptor 5; experiment: Agonist activity at human MC5R expressed in HEK293 cells assessed as increase in intracellular cAMP level at 10 uM after 3 mins by luminescence counter relative to Ac-Nle-c[Asp-His-D-Phe-Arg-Trp-Lys]-NH2; type: functional, cell-based
Melanocortin receptor 3 [12] = biological target: T3, Melanocortin receptor 3; experiment: Displacement of [125I]-NDP-alpha-MSH from human MC3R expressed in HEK293 cells after 40 mins by Wallac 1470 gamma counting; type: cell-based
Melanocortin receptor 4 [13] = biological target: T2, Melanocortin receptor 4; experiment: Displacement of [125I]-NDP-alpha-MSH from human MC4R expressed in HEK293 cells at 10 uM after 40 mins by Wallac 1470 gamma counting relative to Ac-Nle-c[Asp-His-D-Phe-Arg-Trp-Lys]-NH2; type: cell-based
Melanocortin receptor 3 [14] = biological target: T3, Melanocortin receptor 3; experiment: Agonist activity at human MC3R expressed in HEK293 cells assessed as increase in intracellular cAMP level at 10 uM after 3 mins by luminescence counter relative to Ac-Nle-c[Asp-His-D-Phe-Arg-Trp-Lys]-NH2; type: functional, cell-based
[15] = biological target: T1, Melanocyte-stimulating hormone receptor; experiment: Agonist activity at human MC1R expressed in HEK293 cells assessed as increase in intracellular cAMP level at 10 uM after 3 mins by luminescence counter relative to Ac-Nle-c[Asp-His-D-Phe-Arg-Trp-Lys]-NH2; type: functional, cell-based
Target sequence in this assay (Q01726 whole entry, looked up): as the sequence (Q01726 whole entry) above

Melanocortin receptor 5 [16] = biological target: T4, Melanocortin receptor 5; experiment: Displacement of [125I]-NDP-alpha-MSH from human MC5R expressed in HEK293 cells at 10 uM after 40 mins by Wallac 1470 gamma counting relative to Ac-Nle-c[Asp-His-D-Phe-Arg-Trp-Lys]-NH2; type: cell-based

T3 sequence (P41968 whole entry): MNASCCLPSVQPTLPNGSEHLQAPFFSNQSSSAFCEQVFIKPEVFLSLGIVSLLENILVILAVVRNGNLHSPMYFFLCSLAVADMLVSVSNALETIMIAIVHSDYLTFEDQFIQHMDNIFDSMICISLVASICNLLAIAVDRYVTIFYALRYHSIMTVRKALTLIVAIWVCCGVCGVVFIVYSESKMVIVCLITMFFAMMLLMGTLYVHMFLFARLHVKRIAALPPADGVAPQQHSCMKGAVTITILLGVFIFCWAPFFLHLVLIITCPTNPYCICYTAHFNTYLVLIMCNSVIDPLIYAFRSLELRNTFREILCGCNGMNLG
T2 sequence (P32245 whole entry): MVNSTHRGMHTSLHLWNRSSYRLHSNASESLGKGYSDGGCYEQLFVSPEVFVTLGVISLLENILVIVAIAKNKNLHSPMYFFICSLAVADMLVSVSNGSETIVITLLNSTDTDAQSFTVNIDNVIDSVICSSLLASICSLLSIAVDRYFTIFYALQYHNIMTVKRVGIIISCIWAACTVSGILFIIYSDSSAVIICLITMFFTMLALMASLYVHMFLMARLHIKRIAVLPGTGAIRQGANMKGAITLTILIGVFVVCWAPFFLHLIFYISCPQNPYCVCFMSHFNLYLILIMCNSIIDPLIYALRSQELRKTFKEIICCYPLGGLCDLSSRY
T4 sequence (P33032 whole entry): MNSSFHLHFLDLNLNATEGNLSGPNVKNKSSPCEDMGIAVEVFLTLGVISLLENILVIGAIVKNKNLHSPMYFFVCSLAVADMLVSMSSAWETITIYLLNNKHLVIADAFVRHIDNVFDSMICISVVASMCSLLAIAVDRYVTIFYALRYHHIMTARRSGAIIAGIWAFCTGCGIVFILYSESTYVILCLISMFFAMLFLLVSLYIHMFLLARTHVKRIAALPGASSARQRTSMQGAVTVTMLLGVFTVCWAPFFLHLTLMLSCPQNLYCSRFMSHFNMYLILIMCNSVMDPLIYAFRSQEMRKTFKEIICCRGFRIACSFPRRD

C[C@@H]1NC(=O)[C@@H](CCCNC(=N)N)NC(=O)[C@H](Cc2ccccc2)NC(=O)[C@H](Cc2c[nH]c3ccccc23)NC(=O)[C@H](CCCNC(=N)N)NC(=O)CC[C@@H](C(N)=O)NC(=O)[C@H](Cc2ccccc2)NC1=O
Not Active: EC50 [1] | IC50 (Melanocortin receptor 4 [3]) | EC50 (Melanocortin receptor 4 [4]) | EC50 (Melanocortin receptor 3 [5]) | EC50 (Melanocortin receptor 5 [6])
0%: Activity (Melanocortin receptor 4 [2])
30%: Activity (Melanocortin receptor 3 [7])

C[C@@H]1NC(=O)[C@@H](CC(N)=O)NC(=O)[C@H](Cc2ccccc2)NC(=O)[C@H](Cc2c[nH]c3ccccc23)NC(=O)[C@H](CCCNC(=N)N)NC(=O)CC[C@@H](C(N)=O)NC(=O)[C@H](Cc2ccccc2)NC1=O (RWF[dN]AFE-NH2; lactam N-7)
Not Active: EC50 [1] | IC50 [9] | IC50 (Melanocortin receptor 4 [3]) | IC50 (Melanocortin receptor 5 [10]) | EC50 (Melanocortin receptor 4 [4]) | EC50 (Melanocortin receptor 3 [5]) | EC50 (Melanocortin receptor 5 [6]) | IC50 (Melanocortin receptor 3 [12])
0%: Activity [8] | Activity (Melanocortin receptor 4 [2]) | Activity (Melanocortin receptor 5 [11]) | Activity (Melanocortin receptor 3 [7])

C[C@@H]1NC(=O)[C@H](CCCNC(=N)N)NC(=O)[C@@H](Cc2ccccc2)NC(=O)[C@H](Cc2c[nH]c3ccccc23)NC(=O)[C@H](CCCNC(=N)N)NC(=O)CC[C@@H](C(N)=O)NC(=O)[C@H](Cc2ccccc2)NC1=O
Not Active: EC50 (Melanocortin receptor 4 [4]) | EC50 (Melanocortin receptor 3 [5]) | EC50 (Melanocortin receptor 5 [6])

C[C@@H]1NC(=O)[C@H](Cc2cnc[nH]2)NC(=O)[C@@H](Cc2ccccc2)NC(=O)[C@H](Cc2c[nH]c3ccccc23)NC(=O)[C@H](CCCNC(=N)N)NC(=O)CC[C@@H](C(N)=O)NC(=O)[C@H](Cc2ccccc2)NC1=O (RW[dF]HAFE-NH2; lactam N-7)
0%: Activity (Melanocortin receptor 4 [13]) | Activity (Melanocortin receptor 5 [11]) | Activity (Melanocortin receptor 3 [14]) | Activity [15]
Not Active: EC50 [1] | IC50 [9] | IC50 (Melanocortin receptor 4 [3]) | IC50 (Melanocortin receptor 5 [10]) | EC50 (Melanocortin receptor 4 [4]) | EC50 (Melanocortin receptor 3 [5]) | EC50 (Melanocortin receptor 5 [6]) | IC50 (Melanocortin receptor 3 [12])

CC(=O)N[C@H]1CC(=O)NCCCC[C@@H](C(N)=O)NC(=O)[C@@H](CCC(N)=O)NC(=O)[C@H](Cc2ccc3ccccc3c2)NC(=O)[C@H](Cc2c[nH]c3ccccc23)NC(=O)[C@H](CCCNC(=N)N)NC1=O (Ac-DRW[2Nal][dQ]K-NH2; lactam 1-6)
0%: Activity (Melanocortin receptor 4 [2]) | Activity (Melanocortin receptor 5 [11]) | Activity (Melanocortin receptor 3 [7]) | Activity [15]
Not Active: EC50 [1] | IC50 [9] | IC50 (Melanocortin receptor 4 [3]) | IC50 (Melanocortin receptor 5 [10]) | EC50 (Melanocortin receptor 4 [4]) | EC50 (Melanocortin receptor 3 [5]) | EC50 (Melanocortin receptor 5 [6]) | IC50 (Melanocortin receptor 3 [12])

C[C@@H]1NC(=O)[C@@H](CCC(N)=O)NC(=O)[C@H](Cc2ccc3ccccc3c2)NC(=O)[C@H](Cc2c[nH]c3ccccc23)NC(=O)[C@H](CCCNC(=N)N)NC(=O)CC[C@@H](C(N)=O)NC(=O)[C@H](Cc2ccccc2)NC1=O (RW[2Nal][dQ]AFE-NH2; lactam N-7)
0%: Activity [8] | Activity (Melanocortin receptor 4 [2]) | Activity (Melanocortin receptor 5 [11]) | Activity (Melanocortin receptor 3 [14])
Not Active: EC50 [1] | IC50 [9] | IC50 (Melanocortin receptor 4 [3]) | IC50 (Melanocortin receptor 5 [10]) | EC50 (Melanocortin receptor 4 [4]) | EC50 (Melanocortin receptor 3 [5]) | EC50 (Melanocortin receptor 5 [6]) | IC50 (Melanocortin receptor 3 [12])

C[C@@H]1NC(=O)[C@@H](Cc2cnc[nH]2)NC(=O)[C@H](Cc2ccccc2)NC(=O)[C@H](Cc2c[nH]c3ccccc23)NC(=O)[C@H](CCCNC(=N)N)NC(=O)CC[C@@H](C(N)=O)NC(=O)[C@H](Cc2ccccc2)NC1=O (RWF[dH]AFE-NH2; lactam N-7)
0%: Activity (Melanocortin receptor 4 [2]) | Activity (Melanocortin receptor 5 [11]) | Activity (Melanocortin receptor 3 [14])
Not Active: EC50 [1] | IC50 (Melanocortin receptor 4 [3]) | IC50 (Melanocortin receptor 5 [10]) | EC50 (Melanocortin receptor 4 [4]) | EC50 (Melanocortin receptor 3 [5]) | EC50 (Melanocortin receptor 5 [6]) | IC50 (Melanocortin receptor 3 [12])

C[C@@H]1NC(=O)[C@H](CC(N)=O)NC(=O)[C@H](Cc2ccccc2)NC(=O)[C@H](Cc2c[nH]c3ccccc23)NC(=O)[C@H](CCCNC(=N)N)NC(=O)CC[C@@H](C(N)=O)NC(=O)[C@H](Cc2ccccc2)NC1=O (RWFNAFE-NH2; lactam N-7)
0%: Activity [8] | Activity (Melanocortin receptor 4 [2]) | Activity (Melanocortin receptor 5 [11]) | Activity (Melanocortin receptor 3 [14])
Not Active: EC50 [1] | IC50 [9] | IC50 (Melanocortin receptor 4 [3]) | IC50 (Melanocortin receptor 5 [10]) | EC50 (Melanocortin receptor 4 [4]) | EC50 (Melanocortin receptor 3 [5]) | EC50 (Melanocortin receptor 5 [6]) | IC50 (Melanocortin receptor 3 [12])

C[C@@H]1NC(=O)[C@@H](CCC(N)=O)NC(=O)[C@H](Cc2ccccc2)NC(=O)[C@H](Cc2c[nH]c3ccccc23)NC(=O)[C@H](CCCNC(=N)N)NC(=O)CC[C@@H](C(N)=O)NC(=O)[C@H](Cc2ccccc2)NC1=O (RWF[dQ]AFE-NH2; lactam N-7)
Not Active: EC50 [1] | IC50 [9] | IC50 (Melanocortin receptor 4 [3]) | IC50 (Melanocortin receptor 5 [10]) | EC50 (Melanocortin receptor 4 [4]) | EC50 (Melanocortin receptor 3 [5]) | EC50 (Melanocortin receptor 5 [6]) | IC50 (Melanocortin receptor 3 [12])
0%: Activity (Melanocortin receptor 4 [13]) | Activity (Melanocortin receptor 5 [11]) | Activity (Melanocortin receptor 3 [7]) | Activity [15]

C[C@@H]1NC(=O)[C@H](CC(N)=O)NC(=O)[C@@H](Cc2ccccc2)NC(=O)[C@H](Cc2c[nH]c3ccccc23)NC(=O)[C@H](CCCNC(=N)N)NC(=O)CC[C@@H](C(N)=O)NC(=O)[C@H](Cc2ccccc2)NC1=O (RW[dF]NAFE-NH2; lactam N-7)
0%: Activity [8] | Activity (Melanocortin receptor 4 [2]) | Activity (Melanocortin receptor 5 [11]) | Activity (Melanocortin receptor 3 [14])
Not Active: EC50 [1] | IC50 [9] | IC50 (Melanocortin receptor 4 [3]) | IC50 (Melanocortin receptor 5 [10]) | EC50 (Melanocortin receptor 4 [4]) | EC50 (Melanocortin receptor 3 [5]) | EC50 (Melanocortin receptor 5 [6]) | IC50 (Melanocortin receptor 3 [12])

C[C@@H]1NC(=O)[C@@H](CC(N)=O)NC(=O)[C@H](Cc2ccc3ccccc3c2)NC(=O)[C@H](Cc2c[nH]c3ccccc23)NC(=O)[C@H](CCCNC(=N)N)NC(=O)CC[C@@H](C(N)=O)NC(=O)[C@H](Cc2ccccc2)NC1=O (RW[2Nal][dN]AFE-NH2; lactam N-7)
Not Active: EC50 [1] | IC50 [9] | IC50 (Melanocortin receptor 4 [3]) | IC50 (Melanocortin receptor 5 [10]) | EC50 (Melanocortin receptor 4 [4]) | EC50 (Melanocortin receptor 3 [5]) | EC50 (Melanocortin receptor 5 [6]) | IC50 (Melanocortin receptor 3 [12])
0%: Activity (Melanocortin receptor 5 [16]) | Activity (Melanocortin receptor 4 [2]) | Activity (Melanocortin receptor 3 [7]) | Activity [15]

CC(=O)N[C@H]1CC(=O)NCCCC[C@@H](C(N)=O)NC(=O)[C@@H](CC(N)=O)NC(=O)[C@H](Cc2ccc3ccccc3c2)NC(=O)[C@H](Cc2c[nH]c3ccccc23)NC(=O)[C@H](CCCNC(=N)N)NC1=O (Ac-DRW[2Nal][dN]K-NH2; lactam 1-6)
Not Active: EC50 [1] | IC50 [9] | IC50 (Melanocortin receptor 4 [3]) | IC50 (Melanocortin receptor 5 [10]) | EC50 (Melanocortin receptor 4 [4]) | EC50 (Melanocortin receptor 3 [5]) | EC50 (Melanocortin receptor 5 [6]) | IC50 (Melanocortin receptor 3 [12])
0%: Activity (Melanocortin receptor 4 [2]) | Activity (Melanocortin receptor 5 [11]) | Activity (Melanocortin receptor 3 [7]) | Activity [15]
